The text below walks through data of patent publication US11390609B2, “Rho-associated protein kinase inhibitor, pharmaceutical composition comprising same, and preparation method and use thereof” (BEIJING TIDE PHARMACEUTICAL CO., LTD., priority 2017, dated 2022).

Molecules are shown by their SMILES.

One assay deals with ROCK2 (Homo sapiens, UniProt O75116). Nature of the assay: ROCK2 kinase IC50 assay (CISBIO HTRF KinEASE-STK S2 kit). It counts as biochemical. To be noted: incubated at room temperature for 2 hours. As for the experimental part:
The kinase IC50 was determined by a commercialized CISBIO kinase detection kit, HTRF KinEASE-STK S2 kit (62ST2PEC). ROCK2 (01-119) employed in the reaction was purchased from Carna Biosciences.
Before the assay, the following working solutions as needed were formulated with corresponding reagents according to the instruction of the kinase detection kit: 1×kinase buffer, 5×STK-52 substrate working solution (1.5 μM) and 5×ATP working solution (1.5 μM), 5×ROCK2 kinase working solution, 4×Streptavidin-XL665 working solution, and 4×STK-Ab-Cryptate 2 detection solution. Then the assay was performed according to the following procedure.
A solution of a compound at a concentration of 10000 nM was prepared with the 1×kinase buffer containing 2.5% DMSO. Gradient dilution of the solution of the compound was performed with the kinase buffer containing DMSO, so as to obtain solutions of a test compound at 9 different concentrations. In addition to wells of test compounds, a positive well (containing all the reagents except the compound) and a negative well (containing all the reagents except the test compound and kinase) were set. Except for the control wells (positive and negative wells), a solution of a test compound (4 μL) was added to each of the reaction wells, and a solution of 2.5% DMSO was added to the control wells. Then the substrate ([…], 2 μL. 5×STK-S2 substrate working solution) was added to each of the reaction wells. The 5×ROCK2 kinase working solution (2 μL, containing 1.4 ng ROCK2 kinase) was added to each of the reaction wells except for the negative well, the volume of which was made up with the 1×kinase buffer (2 μL). The 5×ATP working solution (2 μL) was added to each of the reaction wells, and the mixtures were incubated at room temperature for 2 hours. After the kinase reaction was complete, the 4×Streptavidin-XL665 working solution was added to each of the reaction wells, the solutions were mixed, followed by immediate addition of the 4×STK-Ab-Cryptate 2 detection solution (5 μL), and the mixtures were incubated at room temperature for 1 hour. The fluorescence signal was read on ENVISION (Perkinelmer) (excitation wavelength: 320 nm, and emission wavelength: 665 nm and 615 nm). The inhibitory rate in each well was calculated based on the fluorescence intensity value: ER (Emission Ratio)=(fluorescence intensity at 665 nm/fluorescence intensity at 615 nm); inhibitory rate=(ERpositive−ERtest compound)/(ERpositive−ERnegative)*100%. Curves were plotted and fitted to obtain the median inhibitory concentration (IC50) of each teat compound with the PRISM 5.0 software.

The target in another assay is ROCK1 (Homo sapiens (Human), UniProt Q13464). Nature of the assay: ROCK1 kinase IC50 assay (biological test method similar to the ROCK2 assay). It counts as biochemical. An outline of the steps: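 Compound dilution series (9 concentrations, top solution 10000 nM, DMSO-containing buffer) incubated 2 h at room temperature with kinase, STK-S2 substrate and ATP (5× working solutions of 1.5 µM each). Phosphorylation detected by HTRF (665/615 nm emission ratio) after 1 h; inhibition relative to full-reaction and kinase-free wells, fitted for IC50.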
Chain of ROCK1 (Q13464 whole entry, species assumed): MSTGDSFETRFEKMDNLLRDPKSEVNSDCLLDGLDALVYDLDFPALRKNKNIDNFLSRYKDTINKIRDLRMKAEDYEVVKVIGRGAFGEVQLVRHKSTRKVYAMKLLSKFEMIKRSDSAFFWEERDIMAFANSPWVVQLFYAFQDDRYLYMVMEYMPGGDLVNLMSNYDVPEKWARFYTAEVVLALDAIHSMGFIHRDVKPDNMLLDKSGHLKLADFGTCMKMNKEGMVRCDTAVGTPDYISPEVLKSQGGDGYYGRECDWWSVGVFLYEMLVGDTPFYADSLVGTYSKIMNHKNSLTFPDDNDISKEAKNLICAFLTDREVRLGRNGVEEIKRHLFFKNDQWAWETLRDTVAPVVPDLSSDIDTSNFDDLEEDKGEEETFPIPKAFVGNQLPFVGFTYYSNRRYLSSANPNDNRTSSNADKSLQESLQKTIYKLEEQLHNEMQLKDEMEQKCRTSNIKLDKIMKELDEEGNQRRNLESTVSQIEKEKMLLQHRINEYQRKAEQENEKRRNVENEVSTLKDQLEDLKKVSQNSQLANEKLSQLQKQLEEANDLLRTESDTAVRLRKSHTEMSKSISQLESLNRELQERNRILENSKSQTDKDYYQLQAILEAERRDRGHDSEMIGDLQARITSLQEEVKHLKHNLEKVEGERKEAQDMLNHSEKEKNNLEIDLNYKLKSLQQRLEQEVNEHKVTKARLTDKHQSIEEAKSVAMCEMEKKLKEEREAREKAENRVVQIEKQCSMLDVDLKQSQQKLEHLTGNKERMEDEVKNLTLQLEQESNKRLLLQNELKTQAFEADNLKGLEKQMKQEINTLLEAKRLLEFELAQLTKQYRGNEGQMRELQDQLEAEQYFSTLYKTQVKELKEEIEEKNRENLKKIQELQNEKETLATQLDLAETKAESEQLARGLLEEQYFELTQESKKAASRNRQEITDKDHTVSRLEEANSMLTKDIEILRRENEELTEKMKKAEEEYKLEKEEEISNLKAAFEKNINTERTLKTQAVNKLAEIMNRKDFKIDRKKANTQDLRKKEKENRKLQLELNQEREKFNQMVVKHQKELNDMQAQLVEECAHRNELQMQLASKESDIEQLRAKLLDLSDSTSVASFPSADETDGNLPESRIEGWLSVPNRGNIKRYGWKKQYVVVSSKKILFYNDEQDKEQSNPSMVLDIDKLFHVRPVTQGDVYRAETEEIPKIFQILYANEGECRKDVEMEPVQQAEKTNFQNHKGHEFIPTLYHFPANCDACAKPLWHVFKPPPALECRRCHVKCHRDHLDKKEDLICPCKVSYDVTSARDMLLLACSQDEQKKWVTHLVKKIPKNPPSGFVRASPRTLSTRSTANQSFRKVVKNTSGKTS

As a reminder, the IC50 is the concentration at which inhibition is half-maximal. `O=C(c1cc2ccc(-c3nccc(Nc4ccc(-c5cn[nH]c5)cc4)n3)cc2[nH]1)N1CCC2(C1)CC2(F)F` (stereo not drawn) [TDI01486, (6-(4-((4-(1H-pyrazol-4-yl)phenyl)amino)pyrimidin-2-yl)-1H-indol-2-yl)(1,1-difluoro-5-azaspiro[2.4]heptan-5-yl)methanone]: the concentration for half-maximal inhibition (IC50) worked out at 185 nM against ROCK2 and 3 µM at ROCK1.

For the compound `O=C(NC1CC(F)C1)c1cc2ccc(-c3nc(Nc4ccc(-c5cn[nH]c5)cc4)c4sccc4n3)cc2[nH]1` (stereo not drawn) [TDI01487, 6-(4-((4-(1H-pyrazol-4-yl)phenyl)amino)thieno [3,2-d]pyrimidin-2-yl)-N-(3-fluorocyclobutyl)-1H-indole-2-carboxamide], the IC50 at ROCK2 was found to be 193 nM; at ROCK1 it was 5.04 µM.

As for `O=C(c1cc2ccc(-c3nccc(Nc4ccc(-c5cn[nH]c5)cc4)n3)cc2[nH]1)N1CC2C(C1)C2(F)F` (stereo not drawn) [TDI01490, (6-(4-((4-(1H-pyrazol-4-yl)phenyl)amino)pyrimidin-2-yl)-1H-indol-2-yl)(6,6-difluoro-3-azabicyclo[3.1.0]hexan-3-yl)methanone], the IC50 on ROCK2 came to 81 nM; against ROCK1 it was 2.25 µM.

Consider `O=C(c1cc2ccc(-c3nccc(Nc4ccc(-c5cn[nH]c5)cc4)n3)cc2[nH]1)N1CCS(=O)(=O)CC1` [TDI01497, (6-(4-((4-(1H-pyrazol-4-yl)phenyl)amino)pyrimidin-2-yl)-1H-indol-2-yl)(1,1-dioxidothiomorpholino) methanone], for which the IC50 was 319 nM against ROCK2 and greater than 10 µM against ROCK1.

Consider `O=C(c1cc2ccc(-c3nccc(Nc4ccc(-c5cn[nH]c5)cc4)n3)cc2[nH]1)N1CC(=NO)C1` [TDI01498, (6-(4-((4-(1H-pyrazol-4-yl)phenyl)amino)pyrimidin-2-yl)-1H-indol-2-yl)(3-(hydroxyimino)azetidin-1-yl)methanone], for which the IC50 on ROCK2 was 415 nM; at ROCK1 it was greater than 10 µM.

As for `N#CC1CN(C(=O)c2cc3ccc(-c4nccc(Nc5ccc(-c6cn[nH]c6)cc5)n4)cc3s2)C1` [TDI01500, 1-(6-(4-((4-(1H-pyrazol-4-yl)phenyl)-amino)-pyrimidin-2-yl)benzo[b]-thiophene-2-carbonyl)-azetidine-3-carbonitrile], the figures for the IC50 against ROCK2 and against ROCK1 were 13 nM and greater than 10 µM, respectively.

Regarding `Cn1c(C(=O)N2CCC(O)(C(F)(F)F)C2)cc2ccc(-c3nccc(Nc4ccc(-c5cn[nH]c5)cc4)n3)cc21` (stereo not drawn) [TDI01505, (6-(4-((4-(1H-pyrazol-4-yl)phenyl)amino)pyrimidin-2-yl)-1-methyl-1H-indol-2-yl) (3-hydroxy-3-(trifluoromethyl)pyrrolidin-1-yl)methanone], the IC50 against ROCK2 worked out at 209 nM; at ROCK1 it was 5.67 µM.

As for `Cn1c(C(=O)N2CCC(C(F)(F)F)C2)cc2ccc(-c3nccc(Nc4ccc(-c5cn[nH]c5)cc4)n3)cc21` (stereo not drawn) [TDI01506, (6-(4-((4-(1H-pyrazol-4-yl)phenyl)amino)pyrimidin-2-yl)-1-methyl-1H-indol-2-yl)(3-(trifluoromethyl)pyrrolidin-1-yl) methanone], the IC50 is 295 nM on ROCK2 and 7.3 µM against ROCK1.

Take `Cn1c(C(=O)N2CCC(F)(F)C2)cc2ccc(-c3nccc(Nc4ccc(-c5cn[nH]c5)cc4)n3)cc21` [TDI01507, (6-(4-((4-(1H-pyrazol-4-yl)phenyl)amino)pyrimidin-2-yl)-1-methyl-1H-indol-2-yl)(3,3-difluoropyrrolidin-1-yl)methanone]: the IC50 was determined as 113 nM on ROCK2 and 6.84 µM against ROCK1.

For `Cn1c(C(=O)N2CC(F)(F)C2)cc2ccc(-c3nc(Nc4ccc(-c5cn[nH]c5)cc4)c4sccc4n3)cc21` [TDI01508, (6-(4-((4-(1H-pyrazol-4-yl)phenyl)amino)thieno[3,2-d]pyrimidin-2-yl)-1-methyl-1H-indol-2-yl)(3,3-difluoroazetidin-1-yl)methanone], the concentration for half-maximal inhibition (IC50) on ROCK2 was 159 nM; at ROCK1, greater than 10 µM.

Regarding `Cn1c(C(=O)N2CC3C(C2)C3(F)F)cc2ccc(-c3nccc(Nc4ccc(-c5cn[nH]c5)cc4)n3)cc21` (stereo not drawn) [TDI01512, (6-(4-((4-(1H-pyrazol-4-yl)phenyl)amino)pyrimidin-2yl)-1-methyl-1H-indol-2-yl)(6,6-difluoro-3-azabicyclo[3.1.0]hexan-3-yl)methanone], the IC50 on ROCK2 amounted to 22 nM; against ROCK1, 3.63 µM.

For `Cn1c(C(=O)N2CCC3(C2)CC3(F)F)cc2ccc(-c3nccc(Nc4ccc(-c5cn[nH]c5)cc4)n3)cc21` (stereo not drawn) [TDI01513, (6-(4-{(4-(1H-pyrazol-4-yl)phenyl)amino)pyrimidin-2-yl)-1-methyl-1H-indol-2-yl)(1,1-difluoro-5-azaspiro[2.4]heptan-5-yl)methanone], the IC50 against ROCK2 came to 269 nM; on ROCK1, 7.42 µM.

In the case of `Cn1c(C(=O)N2C[C@@H](F)[C@@H](F)C2)cc2ccc(-c3nccc(Nc4ccc(-c5cn[nH]c5)cc4)n3)cc21` [TDI01514, (6-(4-((4-(1H-pyrazol-4-yl)phenyl)amino)pyrimidin-2-yl)-1-methyl-1H-indol-2-yl) ((3S,4R)-3,4-difluoropyrrolidin-1-yl)methanone], the IC50 was found to be 49 nM against ROCK2 and 2.73 µM against ROCK1.

Take `Cn1c(C(=O)N2CC(=CC#N)C2)cc2ccc(-c3nccc(Nc4ccc(-c5cn[nH]c5)cc4)n3)cc21` [TDI01515, 2-(1-(6-(4-((4-(1H-pyrazol-4-yl)phenyl)amino)pyrimidin-2-yl)-1-methyl-1H-indole-2-carbonyl)azetidin-3-ylidene) acetonitrile]: the results for the IC50 against ROCK2 and on ROCK1 were 110 nM and 6.86 µM, respectively.

As for `CC(=O)C1CN(C(=O)c2cc3ccc(-c4nccc(Nc5ccc(-c6cn[nH]c6)cc5)n4)cc3n2C)C1` [TDI01517, 1-(1-(6-(4-((4-(1H-pyrazol-4-yl)phenyl)amino)pyrimidin-2-yl)-1-methyl-1H-indole-2-caibonyl)azetidin-3-yl)ethan-1-one], the IC50 against ROCK2 is 92 nM; against ROCK1, greater than 10 µM.

As for `Cn1c(C(=O)N2C[C@@H](O)[C@H](F)C2)cc2ccc(-c3nccc(Nc4ccc(-c5cn[nH]c5)cc4)n3)cc21` [TDI01518, (6-(4-((4-(lH-pyrazol-4-yl)phenyl)amino)pyrimidin-2-yl)-1-methyl-1H-indol-2-yl)((3R,4R)-3-fluoro-4-hydroxypyrrolidin-1-yl)methanone], the IC50 against ROCK2 is 78 nM; on ROCK1, 3.03 µM.

Consider `Cn1c(C(=O)N2C[C@@H](F)[C@H](Br)C2)cc2ccc(-c3nccc(Nc4ccc(-c5cn[nH]c5)cc4)n3)cc21` [TDI01519, (6-(4-((4-(1H-py razol-4-yl)phenyl)amino)pyrimidin-2-yl)-1-methyl-1H-indol-2-yl)((3R,4R)-3-bromo-4-fluoropyrrolidin-1-yl)methanone], for which the values for the IC50 against ROCK2 and on ROCK1 were 102 nM and 5.24 µM, respectively.

For `Cn1c(C(=O)N2C[C@@H](O)[C@@H](F)C2)cc2ccc(-c3nccc(Nc4ccc(-c5cn[nH]c5)cc4)n3)cc21` [TDI01520, (6-(4-((4-(1H-pyrazol-4-yl)phenyl)amino)pyrimidin-2-yl)-1-methyl-1H-indol-2-yl)((3S,4R)-3-fluoro-4-hydroxypyrrolidin-1-yl)methanone], the IC50 against ROCK2 was 15 nM; on ROCK1 it was greater than 10 µM.

As for `Cn1c(C(=O)N2CC(O)(C(F)(F)F)C2)cc2ccc(-c3nccc(Nc4ccc(-c5cn[nH]c5)cc4)n3)cc21` [TDI01523, (6-(4-((4-(1H-pyrazol-4-yl)phenyl)amino)pyrimidin-2-yl)-1-methyl-1H-indol-2-yl)(3-hydroxy-3-(trifluoromethyl)azetidin-1-yl)methanone], the figures for the IC50 against ROCK2 and against ROCK1 were 86 nM and 1.89 µM, respectively.

In the case of `Cn1c(C(=O)N2CC(F)(CF)C2)cc2ccc(-c3nccc(Nc4ccc(-c5cn[nH]c5)cc4)n3)cc21` [TDI01524, (6-(4-((4-(1H-pyrazol-4-yl)phenyl)amino)pyrimidin-2-yl)-1-methyl-1H-indol-2-yl)(3-fluoro-3-(fluoromethyl)azetidin-1-yl)methanone], the figures for the IC50 on ROCK2 and against ROCK1 were 30 nM and 1.42 µM, respectively.

Regarding `O=C(c1cc2ccc(-c3nc(Nc4ccc(-c5cn[nH]c5)cc4)c4sccc4n3)cc2s1)N1CC(F)(F)C1` [TDI01525, (6-(4-((4-(1H-pyrazol-4-yl)phenyl)-amino)thieno-[3,2-d]-pyrimidin-2-yl)benzo[b]-thiophen-2-yl)(3,3-difluoro-azetidin-1-yl)methanone], the IC50 on ROCK2 was 335 nM; on ROCK1 it was greater than 10 µM.
